Target: Mitogen-activated protein kinase 1 (Homo sapiens, UniProt P28482)
Assay: IMAP-FP Assay: Activated ERK2 activity was determined in an IMAP-FP assay (Molecular Devices).

Sequence of Mitogen-activated protein kinase 1 (P28482 whole entry): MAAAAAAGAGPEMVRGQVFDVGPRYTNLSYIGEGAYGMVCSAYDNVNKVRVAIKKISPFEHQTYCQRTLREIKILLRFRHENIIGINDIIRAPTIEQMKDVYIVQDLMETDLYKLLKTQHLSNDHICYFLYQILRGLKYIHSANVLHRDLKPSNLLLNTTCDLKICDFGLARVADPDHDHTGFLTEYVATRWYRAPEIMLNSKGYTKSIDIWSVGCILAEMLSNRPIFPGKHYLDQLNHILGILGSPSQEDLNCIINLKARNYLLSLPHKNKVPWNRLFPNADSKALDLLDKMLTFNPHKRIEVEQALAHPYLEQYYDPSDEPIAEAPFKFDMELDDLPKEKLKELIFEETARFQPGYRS

IC50: 5.2 nM
Compound: COC(=O)Nc1n[nH]c2cc(NC(=O)N[C@H](C)c3ccc(Cl)c(OC)c3)ncc12
